These results are taken from patent US8350036B2, “Bisnaphthalimidopropyl derivative compounds with anti-parasite and anti-cancer activity” (Universidade Do Porto, priority 2006, dated 2013).

One data set is described as follows: Solubility. Type of data set: physicochemical. The conditions noted are these: effect of longer alkyl central chain.
Another data set has as its system CaCo-2 colon carcinoma. Kind of data set: Cytotoxicity against CaCo-2 cells by MTT assay. Type of data set: cell-based. The conditions noted are these: Homo sapiens, 0.01-40 μM. The protocol:
Cytotoxity was evaluated for CaCo-2 colon carcinoma using the MTT assay with protocols appropriate for the individual test system.^11,13 CaCo-2 cells were maintained in Earle's Minimum Essential Medium (Sigma), supplemented with 10% fetal calf serum (Biosera), 2 mM L-glutamine (Sigma), 1% non-essential amino acids (Sigma), 100 IU mL^−1 penicillin and 100 μg mL^−1 streptomycin (Sigma). Exponentially growing cells were plated at 2×10^4 cells cm^−2 into 96-well plates and incubated for 24 h before the addition of drugs. Stock solutions of compounds were initially dissolved in 20% DMSO and further diluted with fresh complete medium. After 24 and 48 h of incubation at 37° C., the medium was removed and 200 μl of MTT reagent (1 mg/mL) in serum free medium was added to each well. The plates were incubated at 37° C. for 4 h. At the end of the incubation period, the medium was removed and pure DMSO (200 μl) was added to each well. The metabolized MTT product dissolved in DMSO was quantified by reading the absorbance at 560 nm on a micro plate reader (Dynex Technologies, USA). IC50 values are defined, as the drug concentrations required to reduce the absorbance by 50% of the control values. The IC50 values were calculated from the equation of the logarithmic line determined by fitting the best line (Microsoft Excel) to the curve formed from the data. The IC50 value was obtained from the equation for y=50 (50% value).
In general terms: Tetrazolium dyes change colour on reduction, which living cells bring about.

For data set [1], the system named is axenic amastigote of Leishmania infantum. Description: Growth of luciferase-expressing axenic amastigotes (luciferase assay). In kind it is cell-based. The conditions noted are these: for parasite growth inhibition, axenic amastigote: FIG. 1; for IC50: Leishmania infantum, axenic amastigotes, 72 h of incubation, 37° C. The protocol: (§1) The axenic amastigote of Leishmania infantum (clone MHOM/MA671TMA-P263) transfected with reporter gene that encode to the luciferase enzyme (Roy et al, 2000) were grown at 37° C. with 5% CO2 in a cell-free medium called MAA (medium for axenically grown amastigote). The medium MAA/20, consisted of modified medium 199 (Hanks' balanced salts) supplemented with 0.5% soya trypto-casein, 15 mM D-glucose, 5 mM L-glutamine, 4 mM NaHCO3, 0.023 mM bovine hemin, 25 mM HEPES final pH, 6.5 and 20% inactivated fetal calf serum. The parasites were incubated with different concentrations during 3 days at 37° C. with 5% CO2. The growth of the parasites was done by measuring the luciferase activity using luciferin as a substract. The intracellular amastigotes of L. infantum were cultured in a macrophage differentiated human leukemia monocyte cell line (THP-1 cells). The THP-1 cells were differentiated during 2 days with 20 ng/ml of PMA in RPMI-1640 medium supplemented with 10% FCS, 2 mM glutamine, 100 IU of penicillin/ml and 100 μg/ml of streptomycin. The non differentiated cells were washed with prewarmed medium and the adherent cells sinfected with luciferase-expressing axenic amastigotes at a parasite/macrophage ratio of 3:1 for 4 h at 37° C. with 5% CO2. Noninternalized parasites were removed and serial dilutions of each drug were made in the RPMI medium supplemented with 10% FCS. After 3 days of drug exposure, wells containing adherent differentiated THP-1 cells were washed and luciferase activity was determined.
FIG. 1. […] The results are representative of 5 assays made independently. The promastigote and axenic amastigote were incubated with a serial range of drug concentrations 0.30 to 12.5 μM, at 27° C. and 3.125 to 100 μM at 37° C. in 5% CO2, respectively, during 3 days. The growth curves represented indicate the percentage growth related to the control for each concentration after luciferase activity determination. Each point represents a mean of 3 assays±STD.
(§2) Cytotoxicity determined by luciferase assay. The results were obtained after treatment of different parasite forms with a range of different drug concentrations 0.30 to 100 μM after 72 h of incubation. The results were representative of medium±SD at least 5 assays.

For data set [2], the system named is intracellular amastigotes of L. infantum. Description: Intracellular amastigotes in differentiated THP-1 cells (luciferase assay). In kind it is cell-based, Leishmania infantum. Particulars: for IC50: Leishmania infantum, intracellular amastigotes in THP-1 cells, 72 h of incubation, read-out: IC50(μM) Amastigote intracellular; for parasite growth inhibition, intracellular amastigote: range of concentration 0.39 to 12.50 μM. The protocol: as §1
Cytotoxicity determined by luciferase assay. […] The results were representative of medium±SD at least 5 assays.

The subject of data set [3] is Leishmania infantum promastigotes. Description: Growth of luciferase-expressing promastigotes (luciferase assay). Type of data set: cell-based. Particulars: for IC50: Leishmania infantum; for parasite growth inhibition, promastigote: range of concentration 0.39 to 12.50 μM, FIG. 1. The procedure:
Leishmania infantum (clone MHOM/MA671TMA-P263) promastigotes transfected with reporter gene that encode to the luciferase enzyme (Roy et al, 2000) were grown at 27° C. in RPMI medium (Gibco) supplemented with 10% of heat inactivated fetal bovine serum (FBS-Gibco), 2 mM L-glutamine (Gibco), 20 mM Hepes (Gibco), 100 U/ml penicillin (Gibco) and 100 μg/ml streptomycin (Gibco). The parasites (10^6/ml) in the logarithmic phase (2 days of culture) were incubated with a serial range of concentrations of each drug for 3 days at 27° C. and the growth of parasites was determined by using the luciferase activity using luciferin as subtract.
FIG. 1. […] The results are representative of 5 assays made independently. […] The growth curves represented indicate the percentage growth related to the control for each concentration after luciferase activity determination. Each point represents a mean of 3 assays±STD.
as §2

For data set [4] the following is noted: most solvents; previously reported (Kong et al, 2000); cited from earlier work.
Where [5] appears, read: 24 h drug exposure, read-out: IC50 (μM) 24 h.
The mark [6] stands for this setting: 48 h drug exposure, read-out: IC50 (μM) 48 h.
[7] abbreviates: promastigote, unit inferred, read-out: IC50±SD promastigote.
The mark [8] stands for this setting: promastigotes, 72 h of incubation, 27° C., read-out: IC50(μM) Promastigotes.

In general, IC50 refers to the point on the concentration scale where inhibition reaches its midpoint.

Each structure is given as a SMILES string. Read-outs that look alike come from different tables or passages of the source.

For `O=C1c2cccc3cccc(c23)C(=O)N1CCCNCCCCCCCCCCNCCCN1C(=O)c2cccc3cccc(c23)C1=O` [BNIPDadec, Bisnaphthalimidopropyldiaminodecane], the aqueous solubility entry in the data set “Solubility” is listed as “helps aqueous solubility”. Moreover, the IC50 worked out at 0.77 µM in the data set on CaCo-2 colon carcinoma (setting [5]) and 0.36 µM with CaCo-2 colon carcinoma (setting [6]).
Regarding `O=C1c2cccc3cccc(c23)C(=O)N1CCCNCCCCCCCCCCCCNCCCN1C(=O)c2cccc3cccc(c23)C1=O` [BNIPDadod, Bisnaphthalimidopropyldiaminododecane], the 50% inhibitory concentration (IC50) in the data set on CaCo-2 colon carcinoma (setting [5]) came out at 4.5 µM; with CaCo-2 colon carcinoma (setting [6]), 2.7 µM.
For `O=C1c2cccc3cccc(c23)C(=O)N1CCCNCCCCCCCNCCCN1C(=O)c2cccc3cccc(c23)C1=O` [BNIPDahep, Bisnaphthalimidopropyldiaminoheptane] the same measures were 3.2 µM and 0.94 µM.
For `O=C1c2cccc3cccc(c23)C(=O)N1CCCNCCCCCCNCCCN1C(=O)c2cccc3cccc(c23)C1=O` [BNIPDahex, Bisnaphthalimidopropyldiaminohexane] the same measures were 0.65 µM and 2 µM.
On to `O=C1c2cccc3cccc(c23)C(=O)N1CCCNCCCCCCCCCNCCCN1C(=O)c2cccc3cccc(c23)C1=O` [BNIPDanon, Bisnaphthalimidopropyldiaminononane], for which the aqueous solubility entry in “Solubility” was “helps aqueous solubility”. In addition, in data set [1], the “parasite growth inhibition, axenic amastigote” value is given as “dose dependent inhibition of parasite growth”. Moreover, the IC50 in data set [1] turned out to be 17.4 ± 0.97 µM; in the data set with CaCo-2 colon carcinoma (setting [5]) it was 3.6 µM; in the data set on CaCo-2 colon carcinoma (setting [6]), 0.67 µM; in data set [2] it was 6.03 ± 0.67 µM; in data set [3] (setting [7]) it was 2.09 ± 0.54 µM; in data set [3] (setting [8]), 2.09 ± 0.54 µM. For the same compound, the “parasite growth inhibition, intracellular amastigote” value in data set [2] is on record as “dose dependent inhibition of parasite growth”. Moreover, the “parasite growth inhibition, promastigote” value in data set [3] is recorded as “dose dependent inhibition of parasite growth”.
`O=C1c2cccc3cccc(c23)C(=O)N1CCCNCCCCCCCCNCCCN1C(=O)c2cccc3cccc(c23)C1=O` [BNIPDaoct, Bisnaphthalimidopropyldiaminooctane]: the aqueous solubility entry in “Solubility” is on record as “helps aqueous solubility”. Besides, in data set [1], the “parasite growth inhibition, axenic amastigote” value is “didn't inhibited the parasite growth up to 50 μM”. Further, the IC50 was no less than 50 µM in data set [1]; 6.2 µM in the data set on CaCo-2 colon carcinoma (setting [5]); 3.2 µM in the data set on CaCo-2 colon carcinoma (setting [6]); 2.43 ± 0.19 µM in data set [2]; no more than 0.39 µM in data set [3] (setting [7]); no more than 0.39 µM in data set [3] (setting [8]). Further, the “parasite growth inhibition, intracellular amastigote” value in data set [2] was “dose dependent inhibition of parasite growth”. For the same compound, in data set [3], the “parasite growth inhibition, promastigote” value is “dose dependent inhibition of parasite growth”.
Turning to `O=C1c2cccc3cccc(c23)C(=O)N1CCCNCCCCCNCCCN1C(=O)c2cccc3cccc(c23)C1=O` [BNIPDapen, Bisnaphthalimidopropyldiaminopentane], the IC50 worked out at 11 µM in the data set with CaCo-2 colon carcinoma (setting [5]) and 6.5 µM in the data set on CaCo-2 colon carcinoma (setting [6]).
On to `O=C1c2cccc3cccc(c23)C(=O)N1CCCNCCNCCNCCCN1C(=O)c2cccc3cccc(c23)C1=O` [BNIPDeta, Bisnaphthalimidopropyldietiltriamine], for which, in data set [1], the “parasite growth inhibition, axenic amastigote” value is reported as “dose dependent inhibition of parasite growth”. Besides, the IC50 in data set [1] stood at 6.97 ± 0.2 µM; in the data set with CaCo-2 colon carcinoma (setting [5]), 21.7 µM; in the data set with CaCo-2 colon carcinoma (setting [6]), 22.3 µM; in data set [2], 9.52 ± 0.56 µM; in data set [3] (setting [7]) it was 0.96 ± 0.17 µM; in data set [3] (setting [8]), 0.96 ± 0.17 µM. In data set [2], the “parasite growth inhibition, intracellular amastigote” value is reported as “dose dependent inhibition of parasite growth”. In addition, the “parasite growth inhibition, promastigote” value in data set [3] is “dose dependent inhibition of parasite growth”.
As for `O=C1c2cccc3cccc(c23)C(=O)N1CCCNCCCNCCCNCCCN1C(=O)c2cccc3cccc(c23)C1=O` [BNIPDpta, Bisnaphthalimidopropyldipropiltriamine], in data set [1], the “parasite growth inhibition, axenic amastigote” value is “dose dependent inhibition of parasite growth”. Also, the half-maximal inhibitory concentration (IC50) in data set [1] is 5.24 ± 0.93 µM; with CaCo-2 colon carcinoma (setting [5]), 5 µM; in the data set with CaCo-2 colon carcinoma (setting [6]) it was 3.2 µM; in data set [2], 4.22 ± 1.07 µM; in data set [3] (setting [7]), 1.09 ± 0.12 µM; in data set [3] (setting [8]) it was 1.09 ± 0.12 µM. Moreover, the “parasite growth inhibition, intracellular amastigote” value in data set [2] is “dose dependent inhibition of parasite growth”. Besides, the “parasite growth inhibition, promastigote” value in data set [3] is given as “dose dependent inhibition of parasite growth”.
For `O=C1c2cccc3cccc(c23)C(=O)N1CCCNCCCCNCCCN1C(=O)c2cccc3cccc(c23)C1=O` [BNIPPut, Bisnaphthalimidopropylputrescine], the solubility result in data set [4] is recorded as “not soluble in most solvents”. Besides, the “parasite growth inhibition, axenic amastigote” value in data set [1] is given as “dose dependent inhibition of parasite growth”. In addition, the IC50 in data set [1] turned out to be 5.49 ± 0.67 µM; in data set [2], 4.53 ± 0.54 µM; in data set [3] (setting [7]) it was 0.4 ± 0.15 µM; in data set [3] (setting [8]) it was 0.4 ± 0.15 µM. Further, in data set [2], the “parasite growth inhibition, intracellular amastigote” value is recorded as “dose dependent inhibition of parasite growth”. The “parasite growth inhibition, promastigote” value in data set [3] is reported as “dose dependent inhibition of parasite growth”.
`O=C1c2cccc3cccc(c23)C(=O)N1CCCNCCCCNCCCNCCCN1C(=O)c2cccc3cccc(c23)C1=O` [BNIPSpd, Bisnaphthalimidopropylespermidine]: in data set [1], the “parasite growth inhibition, axenic amastigote” value is recorded as “dose dependent inhibition of parasite growth”. Further, the IC50 came out at 9.61 ± 1.84 µM in data set [1]; 0.15 µM in the data set on CaCo-2 colon carcinoma (setting [5]); 0.47 µM in the data set on CaCo-2 colon carcinoma (setting [6]); 8.92 ± 1.07 µM in data set [2]; 1.86 ± 0.82 µM in data set [3] (setting [7]); 1.86 ± 0.82 µM in data set [3] (setting [8]). Besides, the “parasite growth inhibition, intracellular amastigote” value in data set [2] is reported as “dose dependent inhibition of parasite growth”. Also, in data set [3], the “parasite growth inhibition, promastigote” value is on record as “dose dependent inhibition of parasite growth”.
